Reference: ChEMBL document CHEMBL2163275, “The lipogenesis pathway as a cancer target” (J Med Chem, 2011)

Tests used:
[1] = biological target: T1, ATP-citrate synthase (Rattus norvegicus, UniProt P16638); test: Inhibition of rat liver ACLY by fluorimetric analysis
T1 sequence (P16638 whole entry): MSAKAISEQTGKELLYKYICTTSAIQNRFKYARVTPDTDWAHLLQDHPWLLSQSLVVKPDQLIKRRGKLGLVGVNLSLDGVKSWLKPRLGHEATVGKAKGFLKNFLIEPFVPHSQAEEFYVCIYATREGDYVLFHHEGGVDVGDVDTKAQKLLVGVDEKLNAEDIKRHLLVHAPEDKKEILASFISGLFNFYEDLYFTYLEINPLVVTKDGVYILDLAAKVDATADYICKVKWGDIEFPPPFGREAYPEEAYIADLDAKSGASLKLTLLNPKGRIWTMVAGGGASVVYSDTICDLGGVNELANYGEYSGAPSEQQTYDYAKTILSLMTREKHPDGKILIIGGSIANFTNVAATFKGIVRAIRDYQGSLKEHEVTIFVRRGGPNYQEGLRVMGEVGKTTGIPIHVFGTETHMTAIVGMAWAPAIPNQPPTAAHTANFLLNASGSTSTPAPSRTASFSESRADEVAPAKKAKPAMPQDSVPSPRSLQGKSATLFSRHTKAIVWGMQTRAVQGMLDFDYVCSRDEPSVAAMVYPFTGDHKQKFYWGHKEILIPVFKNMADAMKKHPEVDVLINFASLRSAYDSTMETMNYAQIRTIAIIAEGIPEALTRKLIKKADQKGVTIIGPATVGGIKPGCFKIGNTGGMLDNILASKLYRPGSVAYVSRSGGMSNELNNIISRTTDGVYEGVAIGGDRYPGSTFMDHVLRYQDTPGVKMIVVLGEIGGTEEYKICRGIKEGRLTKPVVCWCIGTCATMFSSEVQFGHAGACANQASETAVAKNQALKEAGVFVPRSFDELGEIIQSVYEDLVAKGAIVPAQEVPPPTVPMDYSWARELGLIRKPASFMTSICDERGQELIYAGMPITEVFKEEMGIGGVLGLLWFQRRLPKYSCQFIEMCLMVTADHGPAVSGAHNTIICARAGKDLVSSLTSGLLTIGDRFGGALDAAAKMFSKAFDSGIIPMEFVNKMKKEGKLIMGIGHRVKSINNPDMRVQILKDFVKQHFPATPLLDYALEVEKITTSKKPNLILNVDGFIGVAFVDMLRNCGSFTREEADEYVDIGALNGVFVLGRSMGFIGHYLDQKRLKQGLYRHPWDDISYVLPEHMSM

[2] = biological target: T1, ATP-citrate synthase
[3] = Inhibition of rat liver ACC
[4] = Competitive inhibition of Escherichia coli ACC carboxyltransferase activity using malonyl coA as substrate
[5] = tested on: Escherichia coli; test: Ratio of biotin Ki to compound Ki for Escherichia coli ACC
[6] = biological target: T2, Fatty acid synthase (Homo sapiens, UniProt P49327); test: Antagonist activity at human recombinant FASN thioesterase domain by fluorogenic assay; type: functional
Target sequence in this assay (P49327 whole entry, the tested form may be a part): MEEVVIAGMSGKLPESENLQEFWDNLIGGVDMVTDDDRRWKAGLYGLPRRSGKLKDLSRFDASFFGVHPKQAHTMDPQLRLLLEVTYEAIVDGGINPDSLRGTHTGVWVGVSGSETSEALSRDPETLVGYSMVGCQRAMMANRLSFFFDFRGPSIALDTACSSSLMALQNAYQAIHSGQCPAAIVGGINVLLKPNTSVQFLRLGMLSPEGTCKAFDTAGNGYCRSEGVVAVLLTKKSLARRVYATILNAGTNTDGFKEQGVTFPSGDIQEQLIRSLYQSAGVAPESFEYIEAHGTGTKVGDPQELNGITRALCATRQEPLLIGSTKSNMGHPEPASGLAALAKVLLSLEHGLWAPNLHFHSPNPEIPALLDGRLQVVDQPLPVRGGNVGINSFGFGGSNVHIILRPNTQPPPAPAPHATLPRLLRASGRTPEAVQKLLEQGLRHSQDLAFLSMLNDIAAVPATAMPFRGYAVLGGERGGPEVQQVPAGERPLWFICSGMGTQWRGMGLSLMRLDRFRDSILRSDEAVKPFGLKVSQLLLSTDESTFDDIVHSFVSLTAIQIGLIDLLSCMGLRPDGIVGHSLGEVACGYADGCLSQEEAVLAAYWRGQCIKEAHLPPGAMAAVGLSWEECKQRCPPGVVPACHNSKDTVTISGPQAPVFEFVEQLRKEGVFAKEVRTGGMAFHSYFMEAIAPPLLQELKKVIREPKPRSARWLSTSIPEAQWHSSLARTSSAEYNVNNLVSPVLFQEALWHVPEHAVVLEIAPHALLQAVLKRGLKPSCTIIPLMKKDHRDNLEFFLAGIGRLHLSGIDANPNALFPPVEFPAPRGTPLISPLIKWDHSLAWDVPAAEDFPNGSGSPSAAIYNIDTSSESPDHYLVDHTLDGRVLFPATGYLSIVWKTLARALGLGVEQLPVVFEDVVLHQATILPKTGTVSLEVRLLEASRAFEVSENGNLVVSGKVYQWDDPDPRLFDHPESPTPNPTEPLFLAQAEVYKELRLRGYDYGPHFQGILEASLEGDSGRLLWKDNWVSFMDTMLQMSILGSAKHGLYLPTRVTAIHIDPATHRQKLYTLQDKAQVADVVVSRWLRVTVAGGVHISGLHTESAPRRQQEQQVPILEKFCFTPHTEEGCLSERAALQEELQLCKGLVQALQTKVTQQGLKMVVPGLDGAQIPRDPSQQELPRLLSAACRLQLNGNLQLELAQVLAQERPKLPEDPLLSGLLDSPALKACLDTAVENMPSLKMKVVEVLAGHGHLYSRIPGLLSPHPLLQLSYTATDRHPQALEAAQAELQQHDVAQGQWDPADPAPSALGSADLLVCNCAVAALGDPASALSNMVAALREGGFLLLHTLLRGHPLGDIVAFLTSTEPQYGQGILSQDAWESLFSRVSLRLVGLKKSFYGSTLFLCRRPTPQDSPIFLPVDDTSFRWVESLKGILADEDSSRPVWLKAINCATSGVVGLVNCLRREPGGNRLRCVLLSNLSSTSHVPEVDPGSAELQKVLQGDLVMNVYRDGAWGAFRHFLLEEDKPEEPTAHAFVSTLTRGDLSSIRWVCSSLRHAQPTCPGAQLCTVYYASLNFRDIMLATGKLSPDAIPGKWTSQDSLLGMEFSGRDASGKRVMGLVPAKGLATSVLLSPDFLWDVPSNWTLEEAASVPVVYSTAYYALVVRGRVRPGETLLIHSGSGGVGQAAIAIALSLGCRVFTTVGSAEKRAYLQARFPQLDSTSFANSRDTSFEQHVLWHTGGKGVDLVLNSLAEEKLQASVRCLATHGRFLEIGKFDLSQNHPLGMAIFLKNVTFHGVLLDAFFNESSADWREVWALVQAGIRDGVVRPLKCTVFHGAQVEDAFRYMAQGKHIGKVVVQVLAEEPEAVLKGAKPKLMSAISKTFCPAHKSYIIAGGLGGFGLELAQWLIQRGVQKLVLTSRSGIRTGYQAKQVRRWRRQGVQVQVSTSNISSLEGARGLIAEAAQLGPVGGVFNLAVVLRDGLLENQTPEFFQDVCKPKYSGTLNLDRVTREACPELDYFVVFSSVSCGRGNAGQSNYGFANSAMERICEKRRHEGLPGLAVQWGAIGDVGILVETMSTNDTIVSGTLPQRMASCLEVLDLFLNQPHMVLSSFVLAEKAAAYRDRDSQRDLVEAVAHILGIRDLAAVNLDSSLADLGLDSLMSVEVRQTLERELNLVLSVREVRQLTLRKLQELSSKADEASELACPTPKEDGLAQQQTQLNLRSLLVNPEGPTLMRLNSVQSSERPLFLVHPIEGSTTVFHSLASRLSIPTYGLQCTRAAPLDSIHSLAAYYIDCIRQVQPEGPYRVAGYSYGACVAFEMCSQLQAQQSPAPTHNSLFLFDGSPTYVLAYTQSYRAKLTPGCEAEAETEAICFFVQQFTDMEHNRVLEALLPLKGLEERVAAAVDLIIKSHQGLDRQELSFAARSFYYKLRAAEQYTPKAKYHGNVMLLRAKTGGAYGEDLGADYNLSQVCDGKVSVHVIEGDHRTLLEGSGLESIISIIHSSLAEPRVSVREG

[7] = tested on: MDA-MB-435; test: Cytotoxicity against human MDA-MB-435 cells; type: functional, cell-based
[8] = tested on: MDA-MB-435; test: Selectivity ratio of IC50 for human MCF10A to IC50 for human MDA-MB-435 cells
[9] = Inhibition of rat liver ACC using acetyl coA as substrate and [14C]NaHCO3 incubated for 30 mins prior to substrate addition by liquid scintillation counting
[10] = biological target: T2, Fatty acid synthase; test: Inhibition of FASN in human HepG2 cells; type: cell-based
Target sequence in this assay (P49327 whole entry, the tested form may be a part): as above

[11] = biological target: T2, Fatty acid synthase; conditions: SK-BR-3, 22.4 uM
Target sequence in this assay (P49327 whole entry, looked up, the tested form may be a part): as the sequence (P49327 whole entry, the tested form may be a part) above
Description: Inhibition of FASN in human SKBR3 cells at 22.4 uM

[12] = biological target: T2, Fatty acid synthase; conditions: SK-BR-3, 179 uM
Target sequence in this assay (P49327 whole entry, looked up, the tested form may be a part): as the sequence (P49327 whole entry, the tested form may be a part) above
Description: Inhibition of FASN in human SKBR3 cells at 179 uM

[13] = biological target: T2, Fatty acid synthase; test: Inhibition of FASN in human SKBR3 cells at 21 uM after 3 mins by spectrophotometric analysis relative to control; type: cell-based; conditions: SK-BR-3
Target sequence in this assay (P49327 whole entry, looked up, the tested form may be a part): as the sequence (P49327 whole entry, the tested form may be a part) above

[14] = biological target: T2, Fatty acid synthase; test: Inhibition of FASN in human SKBR3 cells at 29 uM after 3 mins by spectrophotometric analysis relative to control; type: cell-based; conditions: SK-BR-3
Target sequence in this assay (P49327 whole entry, looked up, the tested form may be a part): as the sequence (P49327 whole entry, the tested form may be a part) above

[15] = biological target: T3, ATP-citrate synthase (Homo sapiens, UniProt P53396); test: Inhibition of human recombinant ACLY
T3 sequence (P53396 whole entry): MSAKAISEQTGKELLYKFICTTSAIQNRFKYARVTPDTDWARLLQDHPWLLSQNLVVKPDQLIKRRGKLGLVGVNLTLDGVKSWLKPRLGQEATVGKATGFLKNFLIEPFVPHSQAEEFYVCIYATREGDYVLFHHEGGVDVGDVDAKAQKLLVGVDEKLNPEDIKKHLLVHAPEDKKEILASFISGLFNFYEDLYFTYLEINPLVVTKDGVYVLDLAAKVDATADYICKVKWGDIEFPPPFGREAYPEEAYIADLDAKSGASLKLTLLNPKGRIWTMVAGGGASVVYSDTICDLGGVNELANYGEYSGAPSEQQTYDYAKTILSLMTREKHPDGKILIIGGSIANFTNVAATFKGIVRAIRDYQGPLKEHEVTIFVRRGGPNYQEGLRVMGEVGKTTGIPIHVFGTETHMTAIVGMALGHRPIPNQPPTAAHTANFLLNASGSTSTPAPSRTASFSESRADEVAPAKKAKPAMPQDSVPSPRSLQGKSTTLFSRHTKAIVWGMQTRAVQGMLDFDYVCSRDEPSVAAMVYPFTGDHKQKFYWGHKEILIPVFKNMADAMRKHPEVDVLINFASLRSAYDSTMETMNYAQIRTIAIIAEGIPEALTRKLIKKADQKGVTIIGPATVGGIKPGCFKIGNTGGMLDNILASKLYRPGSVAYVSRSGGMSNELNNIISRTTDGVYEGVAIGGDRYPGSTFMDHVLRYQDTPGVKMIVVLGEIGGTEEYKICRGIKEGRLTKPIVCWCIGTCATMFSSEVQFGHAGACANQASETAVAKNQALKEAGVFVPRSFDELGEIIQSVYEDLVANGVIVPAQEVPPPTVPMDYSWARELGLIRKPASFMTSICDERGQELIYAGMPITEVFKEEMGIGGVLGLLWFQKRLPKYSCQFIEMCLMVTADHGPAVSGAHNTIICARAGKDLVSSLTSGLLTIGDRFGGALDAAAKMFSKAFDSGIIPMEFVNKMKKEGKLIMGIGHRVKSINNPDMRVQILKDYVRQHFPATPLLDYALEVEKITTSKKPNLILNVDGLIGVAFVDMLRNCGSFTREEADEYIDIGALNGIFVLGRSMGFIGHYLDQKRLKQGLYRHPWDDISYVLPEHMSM

[16] = biological target: T2, Fatty acid synthase; test: Inhibition of human recombinant FASN thioesterase domain
Target sequence in this assay (P49327 whole entry, the tested form may be a part): as the sequence (P49327 whole entry, the tested form may be a part) above

[17] = biological target: T2, Fatty acid synthase; test: Inhibition of FASN in human A375 cells; type: cell-based, A-375
Target sequence in this assay (P49327 whole entry, the tested form may be a part): as the sequence (P49327 whole entry, the tested form may be a part) above

[18] = biological target: Fatty acid synthase (Gallus gallus, UniProt P12276); test: Inhibition of chicken liver FASN ketoreductase activity

O=C(O)C[C@@](O)(C(=O)O)[C@H](O)C(=O)O showed a Ki [1] of 8 µM.

O=C(O)C[C@@]1(C(=O)O)O[C@H]1C(=O)O showed a Ki [2] of 18 µM.

For O=C1C[C@@](O)(C(=O)O)[C@@H](C(=O)O)O1, the Ki [1] was 50 µM.

Cc1cc(O)c2c(c1)Cc1cc(O)c(Cl)c(O)c1C2=O showed an IC50 [2] of 0.283 µM.

For CC(C)(C)c1ccc(N2C[C@@H](COc3ccc(C(=O)SCCNC(=O)CCNC(=O)[C@H](O)C(C)(C)COP(=O)(O)OP(=O)(O)OC[C@H]4O[C@@H](n5cnc6c(N)ncnc65)[C@H](O)[C@@H]4OP(=O)(O)O)cc3)CC2=O)cc1, the Ki [3] was 69.2 µM.

For CC(C)(COP(=O)(O)OP(=O)(O)OC[C@H]1O[C@@H](n2cnc3c(N)ncnc32)[C@H](O)[C@@H]1OP(=O)(O)O)[C@H](O)C(=O)NCCC(=O)NCCSC(=O)CC(=O)N1C(=O)N[C@@H]2[C@H](CCCCC(=O)OCc3ccccc3)SC[C@@H]21, the Ki [4] was 23 µM and the Ratio Ki [5] was 350.

Cc1c(-c2cc3ccccc3o2)oc(=O)c(C)c1O showed a Ki [3] of 3.3 µM.

For Cc1cc(C)cc(N2C(=O)NC(=O)/C(=C\c3ccc(-c4ccccc4)o3)C2=O)c1, the Ki [6] was 0.38 µM, the IC50 [7] was 3.47 µM and the “Ratio IC50” value [8] was 2.

With CC(C)(CCCCCC(O)CCCCCC(C)(C)C(=O)SCCNC(=O)CCNC(=O)[C@H](O)C(C)(C)COP(=O)(O)OP(=O)(O)OC[C@H]1O[C@@H](n2cnc3c(N)ncnc32)[C@H](O)[C@@H]1OP(=O)(O)O)C(=O)O (stereo partly specified) the IC50 [9] was 29 µM.

Work on C=C/C(C)=C/[C@]1(C)SC(=O)C(C)=C1O yielded an IC50 [10] of 208 µM.

In the case of C=C/C(C)=C/[C@]1(C)SC(=O)C=C1O, the IC50 [10] is reported as 96.8 µM.

For CCCCC/C=C\C/C=C\C/C=C\CCCCC(=O)O, the inhibition [11] was 41% and the inhibition [12] was 78%.

In the case of O=C(Oc1cc(OC(=O)c2cc(O)c(O)c(O)c2)c2ccccc2c1)c1cc(O)c(O)c(O)c1, the inhibition [13] is reported as 90%.

For O=C(Oc1ccc(OC(=O)c2cc(O)c(O)c(O)c2)c2ccccc12)c1cc(O)c(O)c(O)c1, the inhibition [14] was 69%.

With O=C(O)C[C@](O)(C[C@@H](O)CCCCCC1c2ccccc2-c2cc(Cl)ccc21)C(=O)O (mixture of isomers) the Ki [15] was 0.22 µM.

In the case of O=C(O)[C@H](O)[C@](O)(C[C@@H](O)CCCCCCc1ccc(Cl)cc1Cl)C(=O)O (racemic), the Ki [15] is reported as 0.62 µM.

Compound Cc1cn(-c2cc(Cl)ccc2CCCCCC[C@H](O)C[C@@](O)(CC(=O)O)C(=O)O)cc1C (racemic) has a Ki [15] of 0.3 µM.

Compound O=C(O)C[C@](O)(C[C@@H](O)CCCCCn1c(-c2ccccc2)cc2cc(Cl)ccc21)C(=O)O (racemic) has a Ki [15] of 0.37 µM.

For O=C(O)C[C@](O)(C[C@@H](O)CCCCCn1c2ccccc2c2cc(Cl)ccc21)C(=O)O (racemic), the Ki [15] was 0.71 µM.

With C=C1C(=O)O[C@H](CCCCCCCC)[C@H]1C(=O)O (relative stereo) the IC50 [16] was 59 µM, the IC50 [17] was 32.4 µM and the IC50 [18] was 80 µM.
